Laboratory results from US11230525B2, “Organic sulfur compound, method for preparing same, and pharmaceutical composition for preventing or treating cancer or an inflammatory disease, containing same as active ingredient” (SOOKMYUNG WOMENS UNIVERSITY INDUSTRY-ACADEMIC COOPERATION …, priority 2016, dated 2022).

What was measured:
[1] = test system: renal cancer cell line (ACHN); experiment: Cancer proliferation inhibitory activity (SRB, GI50), ACHN; assay type: cell-based; settings: Homo sapiens, 48 hours
Description: (§1) Particularly, the cancer proliferation inhibitory activity of the compounds of comparative examples (Ajoene and the compounds isosteric to Ajoene wherein R1 is allyl or benzyl) and the compounds of examples of the present invention (the compounds not isosteric to Ajoene wherein R^1 is phenyl) was investigated in human cancer cell lines (renal cancer cell line (ACHN), breast cancer cell line (MDA-MB-231), colorectal cancer cell line (HCT-15), prostate cancer cell line (PC-3), gastric cancer cell line (NUGC-3) and lung cancer cell line (NCl-H23)).
(§2) At this time, the cancer cell lines (renal cancer cell line (ACHN), breast cancer cell line (MDA-MB-231), colorectal cancer cell line (HCT-15), prostate cancer cell line (PC-3), gastric cancer cell line (NUGC-3) and lung cancer cell line (NCl-H23)) above were purchased from American Type Culture Collection (Manassas, Va., USA). Cells were cultured in RPMI 1640 supplemented with 10% fetal bovine serum, which were maintained 37° C. under 5% CO2 wet atmosphere. The cells were distributed in a 96-well plate, which was not treated (treated only with 0.1% DMSO) or treated with the compounds of examples of the present (0.1 μM to 10 μM). 48 hours later, the cells were fixed in 50% trichloroacetic acid, followed by staining with 1% acetic acid containing 0.4% sulphorodamine B dissolved therein. The non-conjugated dye was removed by washing with 1% acetic acid, and the protein conjugated dye was extracted with 10 mM Tris base (pH 10.5). Then, OD540 was measured with VersaMax microplate reader (Molecular devices, Sunnyvale, Calif., USA). GI50 was calculated by using GraphPad Prism software (GraphPad Software, Inc., San Diego, Calif., USA).
(§3) Based on the results obtained in experimental example 1-1 above, the derivatives wherein R^1 is phenyl were additionally synthesized. The cancer proliferation inhibitory activity of the derivatives was evaluated by the same manner as described in experimental example 1-1.

[2] = test system: breast cancer cell line (MDA-MB-231); experiment: Cancer proliferation inhibitory activity (SRB, GI50), MDA-MB-231; assay type: cell-based; settings: Homo sapiens, 48 hours
Description: as §1, §2, §3

[3] = test system: prostate cancer cell line (PC-3); experiment: Cancer proliferation inhibitory activity (SRB, GI50), PC-3; assay type: cell-based; settings: Homo sapiens, 48 hours
Description: as §1, §2, §3

[4] = test system: gastric cancer cell line (NUGC-3); experiment: Cancer proliferation inhibitory activity (SRB, GI50), NUGC-3; assay type: cell-based; settings: Homo sapiens, 48 hours
Description: as §1, §2, §3

[5] = test system: colorectal cancer cell line (HCT-15); experiment: Cancer proliferation inhibitory activity (SRB, GI50), HCT-15; assay type: cell-based; settings: Homo sapiens, 48 hours
Description: as §1, §2, §3

[6] = test system: lung cancer cell line (NCl-H23); experiment: Cancer proliferation inhibitory activity (SRB, GI50), NCI-H23; assay type: cell-based; settings: Homo sapiens, 48 hours
Description: as §1, §2, §3

HDAC 8 = molecular target: T1, HDAC 8 (Homo sapiens, UniProt Q9BY41); experiment: HDAC enzyme fluorescence assay, HDAC 8; assay type: biochemical; design: Inhibitory activity (%) HDAC 8: concentration or dose not given beside the values; settings: (HDAC inhibitory activity of example compound/HDAC inhibitory activity of SAHA) × 100
T1 sequence (Q9BY41 1-377): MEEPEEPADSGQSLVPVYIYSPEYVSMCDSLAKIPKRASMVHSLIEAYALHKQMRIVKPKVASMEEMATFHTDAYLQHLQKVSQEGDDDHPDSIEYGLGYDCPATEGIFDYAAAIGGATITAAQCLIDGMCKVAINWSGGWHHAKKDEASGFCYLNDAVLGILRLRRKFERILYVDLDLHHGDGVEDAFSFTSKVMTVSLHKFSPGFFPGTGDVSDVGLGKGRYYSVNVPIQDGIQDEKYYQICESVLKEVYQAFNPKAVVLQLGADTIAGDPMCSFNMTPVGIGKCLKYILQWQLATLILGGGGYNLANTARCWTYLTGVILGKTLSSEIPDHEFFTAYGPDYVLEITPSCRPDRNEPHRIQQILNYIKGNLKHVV
Experimental: Particularly, HDAC enzyme analysis was performed based on a uniform fluorescence emission assay. First, the compounds of examples of the present invention or comparative example 1 were diluted at different concentrations, which were treated to the analysis buffer containing 25 mM HEPES (pH 8.0), 137 mM NaCl, 1 mM MgCl2 and 2.7 mM KCL, followed by culture of the recombinant HDAC enzyme. 10 minutes later, Boc-Lys(acetyl)-AMC, the fluorescence inducing substrate, was added thereto, followed by further culture at 37° C. At this time, the concentration of the fluorescence inducing substrate and the culture time were adjusted according to the isotypes of the HDAC enzyme. The reaction was terminated by treating trypsin at room temperature for 20 minutes. The fluorescence intensity was measured using a fluorescence analyzer at an excitation wavelength of 380 nm and an emission wavelength of 460 nm, respectively. The inhibition rate was calculated from the measured fluorescence intensity of each well with comparing to that of the control well. IC50 of the compound was calculated by analyzing the dose-reaction inhibition curve.
The HDAC 8 inhibitory activity was presented as percentage of relative activity by the inhibitory activity of SAHA (Vorinostat) used as a reference compound.

## COc1ccc([S+]([O-])C/C=C/SSCc2ccc(Cl)cc2)cc1 (stereo not drawn) [Example 35, (E)-1-(4-chlorobenzyl)-2-(3-(4-methoxyphenylsulfinyl)prop-1-enyl)disulfane]
[1]
  GI50: 0.88 µM
[2]
  GI50: 1.16 µM
[3]
  GI50: 1.05 µM
[4]
  GI50: 1.08 µM
[5]
  GI50: 0.88 µM
[6]
  GI50: 0.97 µM
HDAC 8
  Inhibitory activity (%) HDAC 8: 107.2%

## COc1ccc(CSS/C=C/C[S+]([O-])c2ccccc2)cc1 (stereo not drawn) [Example 9, (E)-1-(4-methoxybenzyl)-2-(3-(phenylsulfinyl)prop-1-enyl)disulfane]
[1]
  GI50: 2.94 µM
[2]
  GI50: 1.54 µM
[3]
  GI50: 2.72 µM
[4]
  GI50: 1.43 µM
[5]
  GI50: 3.03 µM
[6]
  GI50: 1.45 µM
HDAC 8
  Inhibitory activity (%) HDAC 8: 48.7%

## C=CCSS/C=C/C[S+]([O-])c1cccc(OC)c1 (stereo not drawn) [Example 15, (E)-1-allyl-2-(3-(3-methoxyphenylsulfinyl)prop-1-enyl)disulfane]
[1]
  GI50: 2.56 µM
[2]
  GI50: 4.51 µM
[3]
  GI50: 3.02 µM
[4]
  GI50: 2.95 µM
[5]
  GI50: 2.58 µM
[6]
  GI50: 3.42 µM
HDAC 8
  Inhibitory activity (%) HDAC 8: 84.6%

## COc1cccc([S+]([O-])C/C=C/SSCc2ccc(F)cc2)c1 (stereo not drawn) [Example 21, (E)-1-(4-fluorobenzyl)-2-(3-(3-methoxyphenylsulfinyl)prop-1-enyl)disulfane]
[1]
  GI50: 2.46 µM
[2]
  GI50: 2.02 µM
[3]
  GI50: 1.97 µM
[4]
  GI50: 1.56 µM
[5]
  GI50: 1.75 µM
[6]
  GI50: 2.12 µM
HDAC 8
  Inhibitory activity (%) HDAC 8: 109.2%

## COc1ccc([S+]([O-])C/C=C\SSCc2ccc(Cl)c(Cl)c2)cc1 (stereo not drawn) [Example 38, (Z)-1-(3,4-dichlorobenzyl)-2-(3-(4-methoxyphenylsulfinyl)prop-1-enyl)disulfane]
[1]
  GI50: 5.19 µM
[2]
  GI50: 2.07 µM
[3]
  GI50: 4.36 µM
[4]
  GI50: 4.61 µM
[5]
  GI50: 7.18 µM
[6]
  GI50: 3.33 µM
HDAC 8
  Inhibitory activity (%) HDAC 8: 55.5%

## [O-][S+](C/C=C\SSCc1ccc(Cl)cc1)c1ccccc1 (stereo not drawn) [Example 12, (Z)-1-(4-chlorobenzyl)-2-(3-(phenylsulfinyl)prop-1-enyl)disulfane]
[1]
  GI50: 2.95 µM
[2]
  GI50: 2.26 µM
[3]
  GI50: 4.99 µM
[4]
  GI50: 3.24 µM
[5]
  GI50: 5.48 µM
[6]
  GI50: 3.51 µM
HDAC 8
  Inhibitory activity (%) HDAC 8: 105.4%

## COc1ccc([S+]([O-])C/C=C\SSCc2ccc(Cl)cc2)cc1 (stereo not drawn) [Example 36, (Z)-1-(4-chlorobenzyl)-2-(3-(4-methoxyphenylsulfinyl)prop-1-enyl)disulfane]
[1]
  GI50: 2.41 µM
[2]
  GI50: 1.78 µM
[3]
  GI50: 2.28 µM
[4]
  GI50: 2.84 µM
[5]
  GI50: 1.62 µM
[6]
  GI50: 2.19 µM
HDAC 8
  Inhibitory activity (%) HDAC 8: 98.7%

## [O-][S+](C/C=C\SSCc1ccc(Cl)c(Cl)c1)c1ccccc1 (stereo not drawn) [Example 14, (Z)-1-(3,4-dichlorobenzyl)-2-(3-(phenylsulfinyl)prop-1-enyl)disulfane]
[1]
  GI50: 7.68 µM
[2]
  GI50: 4.78 µM
[3]
  GI50: 4.55 µM
[4]
  GI50: 8.51 µM
[5]
  GI50: > 10 µM
[6]
  GI50: 7.35 µM
HDAC 8
  Inhibitory activity (%) HDAC 8: 146.4%

## COc1ccc([S+]([O-])C/C=C/SSCc2ccc(F)cc2)cc1 (stereo not drawn) [Example 33, (E)-1-(4-fluorobenzyl)-2-(3-(4-methoxyphenylsulfinyl)prop-1-enyl)disulfane]
[1]
  GI50: 0.17 µM
[2]
  GI50: 0.16 µM
[3]
  GI50: 0.29 µM
[4]
  GI50: 0.24 µM
[5]
  GI50: 0.25 µM
[6]
  GI50: 0.27 µM
HDAC 8
  Inhibitory activity (%) HDAC 8: 111.7%

## COc1cccc([S+]([O-])C/C=C\SSCc2ccc(Cl)c(Cl)c2)c1 (stereo not drawn) [Example 26, (Z)-1-(3,4-dichlorobenzyl)-2-(3-(3-methoxyphenylsulfinyl)prop-1-enyl)disulfane]
[1]
  GI50: > 10 µM
[2]
  GI50: > 10 µM
[3]
  GI50: 6.67 µM
[4]
  GI50: 3.22 µM
[5]
  GI50: 7.25 µM
[6]
  GI50: > 10 µM
HDAC 8
  Inhibitory activity (%) HDAC 8: 161.9%

## C=CCSS/C=C/C[S+]([O-])c1ccc(OC)cc1 (stereo not drawn) [Example 27, (E)-1-allyl-2-(3-(4-methoxyphenylsulfinyl)prop-1-enyl)disulfane]
[1]
  GI50: 3.86 µM
[2]
  GI50: 5.62 µM
[3]
  GI50: 4.38 µM
[4]
  GI50: 4.62 µM
[5]
  GI50: 6.61 µM
[6]
  GI50: 3.91 µM
HDAC 8
  Inhibitory activity (%) HDAC 8: 39.8%

## [O-][S+](C/C=C/SSCc1ccccc1)c1ccccc1 (stereo not drawn) [Example 5, (E)-1-benzyl-2-(3-(phenylsulfinyl)prop-1-enyl)disulfane]
[1]
  GI50: 5.75 µM
[2]
  GI50: 6.27 µM
[3]
  GI50: 3.19 µM
[4]
  GI50: 3.71 µM
[5]
  GI50: 3.97 µM
[6]
  GI50: 2.98 µM
HDAC 8
  Inhibitory activity (%) HDAC 8: 88.6%

## [O-][S+](C/C=C/SSCc1ccc(Cl)cc1)c1ccccc1 (stereo not drawn) [Example 11, (E)-1-(4-chlorobenzyl)-2-(3-(phenylsulfinyl)prop-1-enyl)disulfane]
[1]
  GI50: 1.22 µM
[2]
  GI50: 1.56 µM
[3]
  GI50: 1.3 µM
[4]
  GI50: 1.16 µM
[5]
  GI50: 1.67 µM
[6]
  GI50: 2 µM
HDAC 8
  Inhibitory activity (%) HDAC 8: 74.4%

## COc1ccc([S+]([O-])C/C=C/SSCc2ccc(Cl)c(Cl)c2)cc1 (stereo not drawn) [Example 37, (E)-1-(3,4-dichlorobenzyl)-2-(3-(4-methoxyphenylsulfinyl)prop-1-enyl)disulfane]
[1]
  GI50: 3.75 µM
[2]
  GI50: 4.19 µM
[3]
  GI50: 5.17 µM
[4]
  GI50: 5.48 µM
[5]
  GI50: 3.32 µM
[6]
  GI50: 3.09 µM
HDAC 8
  Inhibitory activity (%) HDAC 8: 106.1%

## COc1cccc([S+]([O-])C/C=C\SSCc2ccc(F)cc2)c1 (stereo not drawn) [Example 22, (Z)-1-(4-fluorobenzyl)-2-(3-(3-methoxyphenylsulfinyl)prop-1-enyl)disulfane]
[1]
  GI50: 3.85 µM
[2]
  GI50: 4.41 µM
[3]
  GI50: 3.04 µM
[4]
  GI50: 3.67 µM
[5]
  GI50: 3.01 µM
[6]
  GI50: 2.71 µM
HDAC 8
  Inhibitory activity (%) HDAC 8: 122.9%

## COc1cccc([S+]([O-])C/C=C/SSCc2ccccc2)c1 (stereo not drawn) [Example 19, (E)-1-benzyl-2-(3-(3-methoxyphenylsulfinyl)prop-1-enyl)disulfane]
[1]
  GI50: 2.5 µM
[2]
  GI50: 1.77 µM
[3]
  GI50: 1.44 µM
[4]
  GI50: 2.34 µM
[5]
  GI50: 2.08 µM
[6]
  GI50: 2.12 µM
HDAC 8
  Inhibitory activity (%) HDAC 8: 88.1%

## CCCSS/C=C/C[S+]([O-])c1ccccc1 (stereo not drawn) [Example 3, (E)-1-(3-(phenylsulfinyl)prop-1-enyl)-2-propyldisulfane]
[1]
  GI50: 3.9 µM
[2]
  GI50: 2.15 µM
[3]
  GI50: 4.74 µM
[4]
  GI50: 2.93 µM
[5]
  GI50: 2.64 µM
[6]
  GI50: 2.8 µM
HDAC 8
  Inhibitory activity (%) HDAC 8: 43.8%

## [O-][S+](C/C=C/SSCc1ccc(Cl)c(Cl)c1)c1ccccc1 (stereo not drawn) [Example 13, (E)-1-(3,4-dichlorobenzyl)-2-(3-(phenylsulfinyl)prop-1-enyl)disulfane]
[1]
  GI50: 1.97 µM
[2]
  GI50: 7.5 µM
[3]
  GI50: 2.3 µM
[4]
  GI50: 1.77 µM
[5]
  GI50: 2.78 µM
[6]
  GI50: 2.92 µM
HDAC 8
  Inhibitory activity (%) HDAC 8: 76.6%
